Test results as given in patent publication US20090297656A1, “Liquid Formulation Based On a Guanidinoacetic Acid Component” (priority 2005, published 2009).
Read-outs that look alike come from different tables or passages of the source. Each block holds one compound with its values, some of them ahead of it.

Key:
[1] = cited from earlier work
[2] = Storage stability in aqueous solution at pH 3.5 and room temperature; format: physicochemical; settings: pH 3.5, room temperature
Text: The rate of breakdown is dependent on the pH of the solution and temperature, with the concentration not playing a role. Particularly in the acid pH region, this breakdown to creatinine proceeds very rapidly. At room temperature and pH 3.5, creatine is already more than 20% converted to creatinine after 3 days and the physiological effect is lost. A pH of 3.5 is a typical pH for, for example, a soft drink. Owing to the rapid breakdown of creatine in this environment, the use of creatine, in particular creatine monohydrate, in aqueous or moist formulations for human and animal nutrition is virtually excluded. Even the pH in the stomach of 1 to 2 can, depending on the residence time, lead to significant breakdown of creatine to form creatinine.
According to FIG. 1, the storage stability of creatine was determined in comparison with a mixture of 4 parts by weight of guanidinoacetic acid and 6 parts by weight of betaine in aqueous solution at pH 3.5 and room temperature: whereas creatine, after 3 days, is already more than 20% converted to creatinine, in the mixture of guanidinoacetic acid and betaine under identical conditions, after 90 days, 95% of the initial amount was still detectable as guanidinoacetic acid.

[3] = Stability under pasteurization or sterilization of aqueous preparations; format: physicochemical; settings: in contrast to creatine
Text: In the production process, aqueous preparations, such as those according to the invention, also, are generally pasteurized or sterilized. […] These advantages were unexpected in this manner in their totality.

[4] = Solubility in water; format: physicochemical; settings: room temperature
Text: In comparison with creatine, guanidinoacetic acid has a lower solubility in water (3.8 g per liter at room temperature). […] Therefore, for example, even in half a liter of an aqueous drink, a physiologically meaningful daily dose of the guanidinoacetic acid component can be incorporated without problem.

[5] = test system: Staphyllococcus aureus; settings: animal experiments; cited from earlier work
[6] = 0.032% guanidinoacetic acid in hens' feed
[7] = chickens, less than 0.1% guanidinoacetic acid in the feed

converted to creatinine ([2]; after 3 days): more than 20%
Structure (SMILES): CN(CC(=O)O)C(=N)N [creatine, reference compound]
weight gain ([1]; chickens, 0.2% creatine in the feed): 4%

stability under the stated conditions [2]: completely stable
Structure (SMILES): C[N+](C)(C)CC(=O)O [Betaine, betaine]

stability under pasteurization/sterilization conditions [3]: outstanding stability
solubility in water [4]: 3.8 g per liter
Structure (SMILES): N=C(N)NCC(=O)O [guanidinoacetic acid]
improved feed utilization [1, 6]: 3%
weight gain [1, 6]: 3%
lower feed consumption compared with the control group [1, 7]: 6%
weight gain compared with the control group [1, 7]: 7%
use against bacterial infections [5]: successfully used
